Assays:
[1] = tested on: metastatic tumor tissue (tumor cells and immune cells) of a patient with ovarian cancer in PVDF capsule tubes; assay: IO-FIVE capsule test in nude mice, ovarian cancer patient of Example 3 (CTG cell viability and FACS, day 10); assay type: in vivo, human; settings: tumor sample after addition of autologous TIL cells (C/T 8)
Description: Experimental Animals, Sample Collection, and Cell Processing were the Same as in Example 1.
The following was collected for cell phenotyping identification: a single cell suspension of patient tumor tissue samples before purification, tumor cells after purification, enriched immune cells (containing CD3+ T cells) eluted from the column, and a cell suspension in which tumor cells after purification and immune cells were mixed in a certain ratio (1.5:1 to 15:1), to yield a final cell count of 0.1 to 0.3 million cells. […]
Cells within the Tubing The basic operational steps were the same as those in Example 1. According to the data analyzed by flow cytometry, the CD45− tumor cells and CD3+ T cells were mixed in a certain ratio (about 1.5:1-15:1). […]
3-21 days after administration (day 10 here), the mice were euthanized, and the PVDF tubes were removed. Cell viability was quantified by the CellTiter-Glo chemiluminescence method, and the relative ratio and basic phenotype of tumor cells and immune cells in PVDF tubes were detected by flow cytometry.
Adjusted to the viability value of the cells in the control vehicle group (as shown in FIG. 9), the proliferation viability of all cells in the drug administration group was calculated, and then the efficacy of the drug to be tested was calculated. […]

[2] = tested on: patient with ovarian cancer; settings: monotherapy
[3] = tested on: peripheral blood tumor cells and immune cells of acute myeloid leukemia (AML) patients in PVDF capsule tubes; assay: IO-FIVE capsule test in nude mice, two AML patients #123 and #124 of Example 5 (CTG cell viability and FACS, day 14); assay type: in vivo, human
Protocol: BALB/c Nude mice (available from Jiangsu Jicui Yaokang Biotechnology Co. Ltd.) aged 6-8 weeks were ordered from the supplier and kept in the animal house at SPF level. The animals were adaptively kept for at least 3 days before the start of the experiment.
Fresh peripheral blood samples from two acute myeloid leukemia (AML) patients (in the acute phase of AML) were collected and placed in anticoagulant tubes and transported to the central laboratory by cold chain (2-8° C.) within a short period of time.
The peripheral blood samples of different patients were transferred into the biological safety cabinet. The cells were centrifuged using a gradient centrifugation gel (available from SIGMA) with a density of 1.077 g/mL at room temperature. […] After resuspension in cell culture medium (available from Gibco), the cells were counted. […]
3-21 days after administration (e.g., day 14 here), the mice were euthanized, and the PVDF tubes were removed. Cell viability was quantified by the CellTiter-Glo chemiluminescence method. Changes in the relative ratio and phenotype of tumor cells and immune cells in PVDF tubes were detected by flow cytometry. Bioinformatic changes of tumor cells and immune cells in PVDF capsule tubes of clinical samples at day 0 or day 10 were detected by molecular biological methods (RNA sequencing, and DNA sequencing technology, etc.). […]

[4] = tested on: peripheral blood and/or bone marrow tumor cells and immune cells of acute myeloid leukemia (AML) patients in PVDF capsule tubes; assay: IO-FIVE capsule test in nude mice, three AML patients #128, #129, #131 of Example 6 (CTG cell viability and FACS, day 14); assay type: in vivo, human
Protocol: Fresh peripheral blood samples and/or bone marrow from three acute myeloid leukemia (AML) patients (in the acute phase) were collected and placed in anticoagulant tubes, and transported to the central laboratory by cold chain (2-8° C.) within a short period of time.
Quality control analysis was performed according to the data obtained by flow cytometry so as to meet the requirement that the ratio of CD8+ T cells was at least more than 0.5% (the required minimum concentration), and the tumor cells (CD45^low/+ SSC-A^mid/hi CD33+/CD38+ cells) and the CD45^high SSC-A^lowCD3+ T lymphocytes were uniformly mixed according to a certain ratio (C/T (CD38+Cancer/CD3+T)=1.5:1 to 15:1), and then filled into PVDF tubes and sealed.
Cell viability as measured by luminescence (CTG method) on day 14: according to the viability value of the cells in the control group (as shown in FIG. 21), the proliferation viability of all the cells in the drug administration group was calculated, and then the efficacy of the drug was calculated.
Flow cytometry detection on day14: the relative ratio of tumor cells and immune cells in PVDF tubes was detected by flow cytometry. The differences between tumor cells and immune cells in the drug group and the control group were compared (as shown in FIG. 22). The results were analyzed by Flowjo software.

Compound	viability of total cells / overall tumor viability (CTG) [1]	clinical response of the patient [2]	response (cell viability by CTG, FACS) ([3]; patient #123, C/T about 15:1, CD8+ T 0.21%)	response / inhibitory effect on cell viability (CTG) compared with control vehicle ([3]; patient #124, C/T about 6:1)	proportion of cancer blasts in the capsules (FACS) ([4]; patient #128)	proportion of cancer blasts in the capsules (FACS) ([4]; patient #129)	AML blasts and CD8+ TILs (FACS) ([4]; patient #131)	response (cell viability, CTG) ([4]; patient #131, C/T 4.5)
NC(=O)c1cccc2cn(-c3ccc([C@@H]4CCCNC4)cc3)nc12 [PARP inhibitor, Niraparib]	neither PD1 antibody nor PARP inhibitor mono-therapy could inhibit the overall tumor viability	poor clinical response	–	–	–	–	–	–
Daratumumab [CD38 antibody]	–	–	did not respond	great response	cancer blasts still occupied a dominant proportion in the capsules	cancer blasts still occupied a dominant proportion in the capsules	less AML blasts and more CD8+ TILs	positive response

Reference: patent US20240076380A1, “DEVICE AND METHODS FOR RAPIDLY SCREENING AND TREATING CLINICAL CANCER PATIENTS WITH IMMUNOREGULATORY DRUGS” (Shanghai Lide Biotech Co., Ltd., priority 2022, published 2024)
